Laboratory results: ChEMBL document CHEMBL1201862, “PubChem BioAssay data set” (2004)
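Test compounds were applied to cells in 96-well plates for 48 hours at 5 doses. GI50 marks 50% less growth.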 Calls of active or inactive are those of the source. Rule as the data show it: active = GI50 up to about 1.1 µM and inactive = higher.

Assays:
Assay in all cases: DTP human tumour cell line panel, 48 h
[1] = system: 786-0
[2] = system: A498
[3] = system: A549
[4] = system: ACHN
[5] = system: BT-549
[6] = system: CAKI-1
[7] = system: CCRF-CEM
[8] = system: COLO 205
[9] = system: DU-145
[10] = system: EKVX
[11] = system: HCC 2998
[12] = system: HCT-116
[13] = system: HCT-15
[14] = system: HL-60
[15] = system: HOP-62
[16] = system: HOP-92
[17] = system: HT-29
[18] = system: Hs-578T
[19] = system: IGROV-1
[20] = system: K562
[21] = system: KM12
[22] = system: LOX IMVI
[23] = system: M14
[24] = system: MCF7
[25] = system: MDA-MB-231
[26] = system: MDA-MB-435
[27] = system: MDA-N
[28] = system: MOLT-4
[29] = system: Malme-3M
[30] = system: NCI-H226
[31] = system: NCI-H23
[32] = system: NCI-H460
[33] = system: NCI-H522
[34] = system: NCI/ADR-RES
[35] = system: OVCAR-3
[36] = system: OVCAR-4
[37] = system: OVCAR-5
[38] = system: OVCAR-8
[39] = system: PC-3
[40] = system: RPMI-8226
[41] = system: RXF 393
[42] = system: SF-268
[43] = system: SF-295
[44] = system: SF-539
[45] = system: SK-MEL-28
[46] = system: SK-MEL-2
[47] = system: SK-MEL-5
[48] = system: SK-OV-3
[49] = system: SN12C
[50] = system: SNB-19
[51] = system: SNB-75
[52] = system: SR
[53] = system: SW-620
[54] = system: T47D
[55] = system: TK-10
[56] = system: U-251
[57] = system: UACC-257
[58] = system: UACC-62
[59] = system: UO-31

Q: `c1ccc2sc(C3(N4CCCCC4)CCCCCC3)cc2c1` was tested. Which GI50 [1] did it give?
A: 20.9 µM (inactive)

Q: And the GI50 [2]?
A: 15.2 µM (inactive)

Q: And the GI50 [3]?
A: 30 µM (inactive)

Q: What about the GI50 [4] of the same molecule?
A: 17.6 µM (inactive)

Q: What about the GI50 [5] of the same molecule?
A: 24.7 µM (inactive)

Q: What about the GI50 [6] of the same molecule?
A: 26.7 µM (inactive)

Q: What about the GI50 [7] of the same molecule?
A: 13.2 µM (inactive)

Q: And the GI50 [8]?
A: 16.6 µM (inactive)

Q: And the GI50 [9]?
A: 31.1 µM (inactive)

Q: What about the GI50 [10] of the same molecule?
A: 22.9 µM (inactive)

Q: And the GI50 [11]?
A: 13.4 µM (inactive)

Q: And the GI50 [12]?
A: 15.5 µM (inactive)

Q: What about the GI50 [13] of the same molecule?
A: 17.3 µM

Q: And the GI50 [14]?
A: 2.1 µM (inactive)

Q: What about the GI50 [15] of the same molecule?
A: 28.8 µM (inactive)

Q: And the GI50 [16]?
A: 22.1 µM (inactive)

Q: What about the GI50 [17] of the same molecule?
A: 14.8 µM (inactive)

Q: And the GI50 [18]?
A: 18.9 µM (inactive)

Q: What about the GI50 [19] of the same molecule?
A: 23.4 µM (inactive)

Q: What about the GI50 [20] of the same molecule?
A: 16.4 µM (inactive)

Q: And the GI50 [21]?
A: 17.1 µM (inactive)

Q: What about the GI50 [22] of the same molecule?
A: 18.5 µM (inactive)

Q: And the GI50 [23]?
A: 27 µM (inactive)

Q: What about the GI50 [24] of the same molecule?
A: 17.8 µM (inactive)

Q: What about the GI50 [25] of the same molecule?
A: 23 µM (inactive)

Q: And the GI50 [26]?
A: 22.3 µM (inactive)

Q: And the GI50 [27]?
A: 34.9 µM (inactive)

Q: And the GI50 [28]?
A: 15.2 µM (inactive)

Q: And the GI50 [29]?
A: 24 µM (inactive)

Q: And the GI50 [30]?
A: 17.3 µM (inactive)

Q: And the GI50 [31]?
A: 20.5 µM (inactive)

Q: What about the GI50 [32] of the same molecule?
A: 17.1 µM (inactive)

Q: And the GI50 [33]?
A: 17.5 µM (inactive)

Q: And the GI50 [34]?
A: 20.5 µM (inactive)

Q: And the GI50 [35]?
A: 19.4 µM (inactive)

Q: And the GI50 [36]?
A: 25.8 µM (inactive)

Q: And the GI50 [37]?
A: 18.8 µM (inactive)

Q: What about the GI50 [38] of the same molecule?
A: 26.1 µM (inactive)

Q: And the GI50 [39]?
A: 15.5 µM (inactive)

Q: And the GI50 [40]?
A: 14.2 µM (inactive)

Q: What about the GI50 [41] of the same molecule?
A: 14.5 µM (inactive)

Q: And the GI50 [42]?
A: 25.4 µM (inactive)

Q: And the GI50 [43]?
A: 22.4 µM (inactive)

Q: And the GI50 [44]?
A: 21 µM (inactive)

Q: And the GI50 [45]?
A: 4.62 µM (inactive)

Q: What about the GI50 [46] of the same molecule?
A: 25.9 µM (inactive)

Q: And the GI50 [47]?
A: 16.6 µM (inactive)

Q: What about the GI50 [48] of the same molecule?
A: 25.3 µM (inactive)

Q: And the GI50 [49]?
A: 20.4 µM (inactive)

Q: What about the GI50 [50] of the same molecule?
A: 20.8 µM (inactive)

Q: And the GI50 [51]?
A: 15.2 µM (inactive)

Q: And the GI50 [52]?
A: 19.1 µM (inactive)

Q: And the GI50 [53]?
A: 12 µM (inactive)

Q: And the GI50 [54]?
A: 14.5 µM (inactive)

Q: And the GI50 [55]?
A: 25.1 µM (inactive)

Q: What about the GI50 [56] of the same molecule?
A: 17.3 µM (inactive)

Q: And the GI50 [57]?
A: 18.8 µM (inactive)

Q: And the GI50 [58]?
A: 25.4 µM (inactive)

Q: And the GI50 [59]?
A: 25.1 µM (inactive)

Q: How did the GI50 [1] turn out when `CSCCC(N)P(C)(=O)O` (stereo not drawn) was run?
A: > 100 µM (inactive)

Q: And the GI50 [2]?
A: > 100 µM (inactive)

Q: And the GI50 [3]?
A: > 100 µM (inactive)

Q: What about the GI50 [4] of the same molecule?
A: > 100 µM (inactive)

Q: What about the GI50 [5] of the same molecule?
A: > 100 µM (inactive)

Q: And the GI50 [6]?
A: > 100 µM (inactive)

Q: What about the GI50 [7] of the same molecule?
A: > 100 µM (inactive)

Q: And the GI50 [8]?
A: > 100 µM (inactive)

Q: What about the GI50 [9] of the same molecule?
A: > 100 µM (inactive)

Q: What about the GI50 [10] of the same molecule?
A: > 100 µM (inactive)

Q: And the GI50 [11]?
A: > 100 µM (inactive)

Q: And the GI50 [12]?
A: > 100 µM (inactive)

Q: And the GI50 [13]?
A: > 100 µM

Q: What about the GI50 [14] of the same molecule?
A: > 100 µM (inactive)

Q: And the GI50 [15]?
A: > 100 µM (inactive)

Q: And the GI50 [16]?
A: > 100 µM (inactive)

Q: And the GI50 [17]?
A: > 100 µM (inactive)

Q: What about the GI50 [18] of the same molecule?
A: > 100 µM (inactive)

Q: What about the GI50 [19] of the same molecule?
A: > 100 µM (inactive)

Q: And the GI50 [20]?
A: > 100 µM (inactive)

Q: And the GI50 [21]?
A: > 100 µM (inactive)

Q: What about the GI50 [22] of the same molecule?
A: > 100 µM (inactive)

Q: What about the GI50 [23] of the same molecule?
A: > 100 µM (inactive)

Q: And the GI50 [24]?
A: > 100 µM (inactive)

Q: What about the GI50 [25] of the same molecule?
A: > 100 µM (inactive)

Q: What about the GI50 [26] of the same molecule?
A: > 22.2 µM (inactive)

Q: What about the GI50 [27] of the same molecule?
A: > 100 µM (inactive)

Q: And the GI50 [28]?
A: > 100 µM (inactive)

Q: What about the GI50 [29] of the same molecule?
A: > 100 µM (inactive)

Q: What about the GI50 [30] of the same molecule?
A: > 100 µM (inactive)

Q: And the GI50 [31]?
A: > 100 µM (inactive)

Q: And the GI50 [32]?
A: > 100 µM (inactive)

Q: And the GI50 [33]?
A: > 100 µM (inactive)

Q: And the GI50 [34]?
A: > 100 µM (inactive)

Q: And the GI50 [35]?
A: > 100 µM (inactive)

Q: What about the GI50 [36] of the same molecule?
A: > 100 µM (inactive)

Q: And the GI50 [37]?
A: > 100 µM (inactive)

Q: And the GI50 [38]?
A: > 100 µM (inactive)

Q: What about the GI50 [39] of the same molecule?
A: > 100 µM (inactive)

Q: And the GI50 [40]?
A: > 100 µM (inactive)

Q: And the GI50 [41]?
A: > 100 µM (inactive)

Q: And the GI50 [42]?
A: > 100 µM (inactive)

Q: And the GI50 [43]?
A: > 100 µM (inactive)

Q: What about the GI50 [44] of the same molecule?
A: > 100 µM (inactive)

Q: And the GI50 [45]?
A: > 100 µM (inactive)

Q: And the GI50 [46]?
A: > 100 µM (inactive)

Q: What about the GI50 [47] of the same molecule?
A: > 100 µM (inactive)

Q: And the GI50 [48]?
A: > 100 µM (inactive)

Q: What about the GI50 [49] of the same molecule?
A: > 100 µM (inactive)

Q: What about the GI50 [50] of the same molecule?
A: > 100 µM (inactive)

Q: What about the GI50 [51] of the same molecule?
A: > 100 µM (inactive)

Q: What about the GI50 [52] of the same molecule?
A: > 100 µM (inactive)

Q: What about the GI50 [53] of the same molecule?
A: > 100 µM (inactive)

Q: What about the GI50 [54] of the same molecule?
A: > 100 µM (inactive)

Q: And the GI50 [55]?
A: > 100 µM (inactive)

Q: And the GI50 [56]?
A: > 100 µM (inactive)

Q: What about the GI50 [57] of the same molecule?
A: > 100 µM (inactive)

Q: What about the GI50 [58] of the same molecule?
A: > 100 µM (inactive)

Q: And the GI50 [59]?
A: > 100 µM (inactive)
